# Tested on: 935938-334-R-J1-PDC complex spheroid viability
# Test: Anticancer human tumor 935938-334-R-J1-PDC patient-derived small intestine adenocarcinoma cell line growth inhibition [POLQ]
# Settings: for IC50: curve of first compound; for viability, T/C: stronger effect = lower value
# Outline: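 Three-cell-type spheroids modelling solid tumor plus stroma served as the readout system; POL inhibitors were tested individually and in combination, concentration ranges set by clinical Cmax where known.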
# [1] = second compound 0.0316 µM, first compound 0.00316 µM
# [2] = second compound 0.0316 µM, first compound 0.01 µM
# [3] = second compound 0.0316 µM, first compound 0.0316 µM
# [4] = second compound 0.0316 µM, first compound 0.1 µM
# [5] = second compound 0.0316 µM, first compound 0.316 µM
# [6] = second compound 0.0316 µM, first compound 1 µM
# [7] = second compound 0.1 µM, first compound 0.00316 µM
# [8] = second compound 0.1 µM, first compound 0.01 µM
# [9] = second compound 0.1 µM, first compound 0.0316 µM
# [10] = second compound 0.1 µM, first compound 0.1 µM
# [11] = second compound 0.1 µM, first compound 0.316 µM
# [12] = second compound 0.1 µM, first compound 1 µM
# [13] = second compound 0.316 µM, first compound 0.00316 µM
# [14] = second compound 0.316 µM, first compound 0.01 µM
# [15] = second compound 0.316 µM, first compound 0.0316 µM
# [16] = second compound 0.316 µM, first compound 0.1 µM
# [17] = second compound 0.316 µM, first compound 0.316 µM
# [18] = second compound 0.316 µM, first compound 1 µM
# [19] = second compound 1 µM, first compound 0.00316 µM
# [20] = second compound 1 µM, first compound 0.01 µM
# [21] = second compound 1 µM, first compound 0.0316 µM
# [22] = second compound 1 µM, first compound 0.1 µM
# [23] = second compound 1 µM, first compound 0.316 µM
# [24] = second compound 1 µM, first compound 1 µM
# [25] = second compound 3.16 µM, first compound 0.00316 µM
# [26] = second compound 3.16 µM, first compound 0.01 µM
# [27] = second compound 3.16 µM, first compound 0.0316 µM
# [28] = second compound 3.16 µM, first compound 0.1 µM
# [29] = second compound 3.16 µM, first compound 0.316 µM
# [30] = second compound 3.16 µM, first compound 1 µM
# [31] = second compound 10 µM, first compound 0.00316 µM
# [32] = second compound 10 µM, first compound 0.01 µM
# [33] = second compound 10 µM, first compound 0.0316 µM
# [34] = second compound 10 µM, first compound 0.1 µM
# [35] = second compound 10 µM, first compound 0.316 µM
# [36] = second compound 10 µM, first compound 1 µM
# 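Note: spheroids exposed to drugs for seven days before viability read.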
# 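Throughout, for viability, T/C: 100% = DMSO vehicle control wells.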
smiles,measurement,setting,value
C=CCn1c(=O)c2cnc(Nc3ccc(N4CCN(C)CC4)cc3)nc2n1-c1cccc(C(C)(C)O)n1 + COC1C(OC(N)=O)C(O)C(Oc2ccc3c(O)c(NC(=O)c4ccc(O)c(CC=C(C)C)c4)c(=O)oc3c2C)OC1(C)C,IC50,second compound 0.0316 µM,651 nM
same,IC50,second compound 0.1 µM,593 nM
same,IC50,second compound 0.316 µM,729 nM
same,IC50,second compound 1 µM,585 nM
same,IC50,second compound 3.16 µM,617 nM
same,IC50,second compound 10 µM,392 nM
same,"viability, T/C",[1],97.9%
same,"viability, T/C",[2],135%
same,"viability, T/C",[3],82.4%
same,"viability, T/C",[4],135%
same,"viability, T/C",[5],84.5%
same,"viability, T/C",[6],29.5%
same,"viability, T/C",[7],136%
same,"viability, T/C",[8],111%
same,"viability, T/C",[9],88.8%
same,"viability, T/C",[10],134%
same,"viability, T/C",[11],71.4%
same,"viability, T/C",[12],32.1%
same,"viability, T/C",[13],126%
same,"viability, T/C",[14],96.7%
same,"viability, T/C",[15],80.4%
same,"viability, T/C",[16],128%
same,"viability, T/C",[17],78.1%
same,"viability, T/C",[18],39.4%
same,"viability, T/C",[19],93.1%
same,"viability, T/C",[20],112%
same,"viability, T/C",[21],123%
same,"viability, T/C",[22],86.3%
same,"viability, T/C",[23],74.8%
same,"viability, T/C",[24],30.4%
same,"viability, T/C",[25],130%
same,"viability, T/C",[26],96.8%
same,"viability, T/C",[27],100%
same,"viability, T/C",[28],112%
same,"viability, T/C",[29],82.5%
same,"viability, T/C",[30],26.6%
same,"viability, T/C",[31],90.5%
same,"viability, T/C",[32],115%
same,"viability, T/C",[33],120%
same,"viability, T/C",[34],86.7%
same,"viability, T/C",[35],57.9%
same,"viability, T/C",[36],24.5%
CC[C@@]1(O)C(=O)OCc2c1cc1n(c2=O)Cc2cc3c(CN(C)C)c(O)ccc3nc2-1 + COC1C(OC(N)=O)C(O)C(Oc2ccc3c(O)c(NC(=O)c4ccc(O)c(CC=C(C)C)c4)c(=O)oc3c2C)OC1(C)C,IC50,second compound 0.0316 µM,> 100 nM
same,IC50,second compound 0.1 µM,80.8 nM
same,IC50,second compound 0.316 µM,93.3 nM
same,IC50,second compound 1 µM,90.3 nM
same,IC50,second compound 3.16 µM,91.5 nM
same,IC50,second compound 10 µM,> 100 nM
same,"viability, T/C","second compound 0.0316 µM, first compound 0.000316 µM",90.7%
same,"viability, T/C","second compound 0.0316 µM, first compound 0.001 µM",81.6%
same,"viability, T/C",[1],98.1%
same,"viability, T/C",[2],92.1%
same,"viability, T/C",[3],86.1%
same,"viability, T/C",[4],56.5%
same,"viability, T/C","second compound 0.1 µM, first compound 0.000316 µM",94.2%
same,"viability, T/C","second compound 0.1 µM, first compound 0.001 µM",81.4%
same,"viability, T/C",[7],100%
same,"viability, T/C",[8],90.9%
same,"viability, T/C",[9],79%
same,"viability, T/C",[10],43%
same,"viability, T/C","second compound 0.316 µM, first compound 0.000316 µM",94.7%
same,"viability, T/C","second compound 0.316 µM, first compound 0.001 µM",72.9%
same,"viability, T/C",[13],103%
same,"viability, T/C",[14],97.7%
same,"viability, T/C",[15],94.8%
same,"viability, T/C",[16],47.2%
same,"viability, T/C","second compound 1 µM, first compound 0.000316 µM",109%
same,"viability, T/C","second compound 1 µM, first compound 0.001 µM",83.1%
same,"viability, T/C",[19],76.4%
same,"viability, T/C",[20],74.8%
same,"viability, T/C",[21],97.3%
same,"viability, T/C",[22],46.3%
same,"viability, T/C","second compound 3.16 µM, first compound 0.000316 µM",127%
same,"viability, T/C","second compound 3.16 µM, first compound 0.001 µM",76.6%
same,"viability, T/C",[25],79.3%
same,"viability, T/C",[26],77%
same,"viability, T/C",[27],104%
same,"viability, T/C",[28],46.4%
same,"viability, T/C","second compound 10 µM, first compound 0.000316 µM",109%
same,"viability, T/C","second compound 10 µM, first compound 0.001 µM",133%
same,"viability, T/C",[31],89.3%
same,"viability, T/C",[32],67.2%
same,"viability, T/C",[33],71.7%
same,"viability, T/C",[34],49.3%
CCc1c2c(nc3ccc(O)cc13)-c1cc3c(c(=O)n1C2)COC(=O)[C@]3(O)CC + COC1C(OC(N)=O)C(O)C(Oc2ccc3c(O)c(NC(=O)c4ccc(O)c(CC=C(C)C)c4)c(=O)oc3c2C)OC1(C)C,IC50,second compound 0.0316 µM,16.6 nM
same,IC50,second compound 0.1 µM,22.6 nM
same,IC50,second compound 0.316 µM,17.8 nM
same,IC50,second compound 1 µM,18.2 nM
same,IC50,second compound 3.16 µM,13.9 nM
same,IC50,second compound 10 µM,5.3 nM
same,"viability, T/C",[1],82%
same,"viability, T/C",[2],59.3%
same,"viability, T/C",[3],38%
same,"viability, T/C",[4],29.4%
same,"viability, T/C",[5],22.9%
same,"viability, T/C",[6],27.8%
same,"viability, T/C",[7],75.8%
same,"viability, T/C",[8],73.7%
same,"viability, T/C",[9],40.1%
same,"viability, T/C",[10],29.6%
same,"viability, T/C",[11],28.7%
same,"viability, T/C",[12],30.5%
same,"viability, T/C",[13],68%
same,"viability, T/C",[14],63.8%
same,"viability, T/C",[15],36.2%
same,"viability, T/C",[16],27.3%
same,"viability, T/C",[17],29%
same,"viability, T/C",[18],22.4%
same,"viability, T/C",[19],62.9%
same,"viability, T/C",[20],76.8%
same,"viability, T/C",[21],31.5%
same,"viability, T/C",[22],26.8%
same,"viability, T/C",[23],29.3%
same,"viability, T/C",[24],22.9%
same,"viability, T/C",[25],73.1%
same,"viability, T/C",[26],57.4%
same,"viability, T/C",[27],31.6%
same,"viability, T/C",[28],30.2%
same,"viability, T/C",[29],27.8%
same,"viability, T/C",[30],28.4%
same,"viability, T/C",[31],53.2%
same,"viability, T/C",[32],49.2%
same,"viability, T/C",[33],34.2%
same,"viability, T/C",[34],30.1%
same,"viability, T/C",[35],31.8%
same,"viability, T/C",[36],31.3%

# Reference: PubChem BioAssay AID1963829 (Molecular Pharmacology Branch, DTP, NCI, 2024)
